Laboratory results reported in ChEMBL document CHEMBL1138046, “Discovery of a new boron-containing antifungal agent, 5-fluoro-1,3-dihydro-1-hydroxy-2,1- benzoxaborole (AN2690), for the potential treatment of onychomycosis” (2006).
In brackets after ≈: the same amount, converted by molar mass.

What was measured:
[1] = tested on: Trichophyton benhamiae; experiment: Antifungal activity against Trichophyton mentagrophytes; assay type: functional, Arthroderma benhamiae
[2] = tested on: Trichophyton rubrum; experiment: Antifungal activity against Trichophyton rubrum; assay type: functional
[3] = tested on: Aspergillus fumigatus; experiment: Antifungal activity against Aspergillus fumigatus; assay type: functional
[4] = tested on: Candida albicans; experiment: Antifungal activity against Candida albicans; assay type: functional
[5] = tested on: Cryptococcus neoformans; experiment: Antifungal activity against Cryptococcus neoformans; assay type: functional

Row | SMILES | MIC [1] | MIC [2] | MIC [3] | MIC [4] | MIC [5]
1 | Fc1ccc(B2OCc3ccccc32)cc1 | 4 µg/mL (≈ 18.9 µM) | 8 µg/mL (≈ 37.7 µM) | 2 µg/mL (≈ 9.43 µM) | 4 µg/mL (≈ 18.9 µM) | 2 µg/mL (≈ 9.43 µM)
2 | c1ccc(B2OCCc3ccccc32)cc1 | 8 µg/mL (≈ 38.4 µM) | 8 µg/mL (≈ 38.4 µM) | 16 µg/mL (≈ 76.9 µM) | 8 µg/mL (≈ 38.4 µM) | 16 µg/mL (≈ 76.9 µM)
3 | C=CB1OCc2cc(F)ccc21 | 2 µg/mL (≈ 12.3 µM) | 4 µg/mL (≈ 24.7 µM) | 2 µg/mL (≈ 12.3 µM) | 1 µg/mL (≈ 6.17 µM) | 4 µg/mL (≈ 24.7 µM)
4 | Fc1ccc2c(c1)COB2/C=C/c1ccccc1 | 2 µg/mL (≈ 8.4 µM) | ≤ 1 µg/mL | 1 µg/mL (≈ 4.2 µM) | 0.5 µg/mL (≈ 2.1 µM) | 0.5 µg/mL (≈ 2.1 µM)
5 | Cc1cscc1B1OCc2cc(F)ccc21 | 2 µg/mL (≈ 8.62 µM) | 1 µg/mL (≈ 4.31 µM) | 1 µg/mL (≈ 4.31 µM) | 1 µg/mL (≈ 4.31 µM) | 1 µg/mL (≈ 4.31 µM)
6 | Fc1cccc(B2OCc3cc(F)ccc32)c1 | 2 µg/mL (≈ 8.69 µM) | 1 µg/mL (≈ 4.35 µM) | 1 µg/mL (≈ 4.35 µM) | 0.5 µg/mL (≈ 2.17 µM) | 1 µg/mL (≈ 4.35 µM)
7 | OCc1ccc2c(c1)COB2O | 64 µg/mL (≈ 390 µM) | 64 µg/mL (≈ 390 µM) | > 64 µg/mL | > 64 µg/mL | > 64 µg/mL
8 | OB1OCc2c(F)cccc21 | 16 µg/mL (≈ 105 µM) | 16 µg/mL (≈ 105 µM) | 32 µg/mL (≈ 211 µM) | 64 µg/mL (≈ 421 µM) | 32 µg/mL (≈ 211 µM)
9 | CC1OB(O)c2ccc(F)cc21 (stereo not given) | 16 µg/mL (≈ 96.4 µM) | 32 µg/mL (≈ 193 µM) | 16 µg/mL (≈ 96.4 µM) | 16 µg/mL (≈ 96.4 µM) | 32 µg/mL (≈ 193 µM)
10 | Fc1ccc2c(c1)COB2c1ccccc1 | 2 µg/mL (≈ 9.43 µM) | 1 µg/mL (≈ 4.72 µM) | 2 µg/mL (≈ 9.43 µM) | 0.5 µg/mL (≈ 2.36 µM) | 2 µg/mL (≈ 9.43 µM)
11 | C(=C\c1ccccc1)/B1OCc2ccccc21 | 8 µg/mL (≈ 36.4 µM) | 8 µg/mL (≈ 36.4 µM) | 4 µg/mL (≈ 18.2 µM) | 2 µg/mL (≈ 9.09 µM) | 4 µg/mL (≈ 18.2 µM)
12 | OB1OCc2ccc3ccccc3c21 | 2 µg/mL (≈ 10.9 µM) | 4 µg/mL (≈ 21.7 µM) | 32 µg/mL (≈ 174 µM) | 32 µg/mL (≈ 174 µM) | 32 µg/mL (≈ 174 µM)
13 | OB1OCc2cc(F)c(F)cc21 | 4 µg/mL (≈ 23.5 µM) | 4 µg/mL (≈ 23.5 µM) | 2 µg/mL (≈ 11.8 µM) | 4 µg/mL (≈ 23.5 µM) | 2 µg/mL (≈ 11.8 µM)
14 | OB1OCc2cccc(F)c21 | 16 µg/mL (≈ 105 µM) | 16 µg/mL (≈ 105 µM) | 4 µg/mL (≈ 26.3 µM) | 32 µg/mL (≈ 211 µM) | 32 µg/mL (≈ 211 µM)
15 | OB1OCc2cc(C(F)(F)F)ccc21 | 8 µg/mL (≈ 39.6 µM) | 8 µg/mL (≈ 39.6 µM) | 8 µg/mL (≈ 39.6 µM) | 16 µg/mL (≈ 79.2 µM) | 16 µg/mL (≈ 79.2 µM)
16 | Fc1ccc2c(c1)COB2c1cccnc1 | 32 µg/mL (≈ 150 µM) | 16 µg/mL (≈ 75.1 µM) | 16 µg/mL (≈ 75.1 µM) | 4 µg/mL (≈ 18.8 µM) | 16 µg/mL (≈ 75.1 µM)
17 | Cc1cccc(B2OCc3cc(F)ccc32)c1 | 4 µg/mL (≈ 17.7 µM) | 2 µg/mL (≈ 8.85 µM) | 0.5 µg/mL (≈ 2.21 µM) | 1 µg/mL (≈ 4.42 µM) | 0.5 µg/mL (≈ 2.21 µM)

Row | SMILES | MIC [1] | MIC [2] | MIC [3] | MIC [4] | MIC [5]
18 | Cc1ccc2c(c1)COB2O | 4 µg/mL (≈ 27 µM) | 8 µg/mL (≈ 54.1 µM) | 2 µg/mL (≈ 13.5 µM) | 2 µg/mL (≈ 13.5 µM) | 8 µg/mL (≈ 54.1 µM)
19 | OB1OCCc2cc(F)ccc21 | 32 µg/mL (≈ 193 µM) | 32 µg/mL (≈ 193 µM) | 32 µg/mL (≈ 193 µM) | 64 µg/mL (≈ 386 µM) | > 64 µg/mL
20 | Fc1ccc2c(c1)COB2c1cccc(Cl)c1 | 8 µg/mL (≈ 32.5 µM) | 4 µg/mL (≈ 16.2 µM) | 2 µg/mL (≈ 8.11 µM) | 0.25 µg/mL (≈ 1.01 µM) | 0.5 µg/mL (≈ 2.03 µM)
21 | c1ccc(B2OCc3ccccc32)cc1 | 4 µg/mL (≈ 20.6 µM) | 4 µg/mL (≈ 20.6 µM) | 4 µg/mL (≈ 20.6 µM) | 4 µg/mL (≈ 20.6 µM) | 8 µg/mL (≈ 41.2 µM)
22 | Fc1cccc(B2OCc3ccccc32)c1 | 16 µg/mL (≈ 75.5 µM) | 8 µg/mL (≈ 37.7 µM) | 8 µg/mL (≈ 37.7 µM) | 4 µg/mL (≈ 18.9 µM) | 4 µg/mL (≈ 18.9 µM)
23 | Fc1ccc(B2OCc3cc(F)ccc32)cc1 | 4 µg/mL (≈ 17.4 µM) | 4 µg/mL (≈ 17.4 µM) | 2 µg/mL (≈ 8.69 µM) | 1 µg/mL (≈ 4.35 µM) | 1 µg/mL (≈ 4.35 µM)
24 | Clc1cccc(B2OCc3ccccc32)c1 | 8 µg/mL (≈ 35 µM) | 16 µg/mL (≈ 70 µM) | 8 µg/mL (≈ 35 µM) | 8 µg/mL (≈ 35 µM) | 4 µg/mL (≈ 17.5 µM)
25 | Cc1ccc(B2OCc3cc(F)ccc32)cc1 | 2 µg/mL (≈ 8.85 µM) | 2 µg/mL (≈ 8.85 µM) | 0.5 µg/mL (≈ 2.21 µM) | 0.5 µg/mL (≈ 2.21 µM) | 0.5 µg/mL (≈ 2.21 µM)
26 | N#Cc1ccc2c(c1)COB2O | 16 µg/mL (≈ 101 µM) | 16 µg/mL (≈ 101 µM) | 16 µg/mL (≈ 101 µM) | 8 µg/mL (≈ 50.3 µM) | 8 µg/mL (≈ 50.3 µM)
27 | Fc1ccc2c(c1)COB2c1ccsc1 | 4 µg/mL (≈ 18.3 µM) | 1 µg/mL (≈ 4.59 µM) | 1 µg/mL (≈ 4.59 µM) | 1 µg/mL (≈ 4.59 µM) | 1 µg/mL (≈ 4.59 µM)
28 | OB1OCc2ccc(F)cc21 | 32 µg/mL (≈ 211 µM) | 16 µg/mL (≈ 105 µM) | 8 µg/mL (≈ 52.7 µM) | 16 µg/mL (≈ 105 µM) | 32 µg/mL (≈ 211 µM)
29 | Fc1ccc2c(c1)CCOB2c1ccccc1 | 8 µg/mL (≈ 35.4 µM) | 8 µg/mL (≈ 35.4 µM) | 8 µg/mL (≈ 35.4 µM) | 8 µg/mL (≈ 35.4 µM) | 8 µg/mL (≈ 35.4 µM)
30 | Fc1ccc2c(c1)COB2c1ccoc1 | 4 µg/mL (≈ 19.8 µM) | 4 µg/mL (≈ 19.8 µM) | 4 µg/mL (≈ 19.8 µM) | 4 µg/mL (≈ 19.8 µM) | 4 µg/mL (≈ 19.8 µM)
31 | OB1OCc2cc(Cl)ccc21 [AN-2718] | 2 µg/mL (≈ 11.9 µM) | 1 µg/mL (≈ 5.94 µM) | 1 µg/mL (≈ 5.94 µM) | 1 µg/mL (≈ 5.94 µM) | 2 µg/mL (≈ 11.9 µM)
32 | OB1OCc2ccccc21 [BENZOXABOROLE] | 4 µg/mL (≈ 29.9 µM) | 8 µg/mL (≈ 59.7 µM) | 2 µg/mL (≈ 14.9 µM) | 2 µg/mL (≈ 14.9 µM) | 1 µg/mL (≈ 7.47 µM)
33 | Cc1cc(C2CCCCC2)n(O)c(=O)c1 [CICLOPIROX] | 0.5 µg/mL (≈ 2.41 µM) | 0.5 µg/mL (≈ 2.41 µM) | 1 µg/mL (≈ 4.82 µM) | 0.5 µg/mL (≈ 2.41 µM) | 0.5 µg/mL (≈ 2.41 µM)
34 | OB1OCc2cc(F)ccc21 [TAVABOROLE] | 1 µg/mL (≈ 6.58 µM) | 1 µg/mL (≈ 6.58 µM) | 0.25 µg/mL (≈ 1.65 µM) | 0.5 µg/mL (≈ 3.29 µM) | 0.25 µg/mL (≈ 1.65 µM)
